What was measured:
[1] = target: B-subunit of cholera toxin (CTB) (Vibrio cholerae serotype O1, UniProt P01556)
nar-3, a rotavirus toxin = experiment: Binding to rotavirus toxin nar-3; conditions: GD3 from Folch LP vs UP
rotavirus particles = experiment: Binding to rotavirus particles

Sequence of B-subunit of cholera toxin (CTB) (P01556 22-124 limits assumed): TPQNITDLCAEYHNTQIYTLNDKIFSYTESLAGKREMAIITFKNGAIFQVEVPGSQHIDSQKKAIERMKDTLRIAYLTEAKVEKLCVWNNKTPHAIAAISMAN

Row | Substance | binding of cholera toxin subunit B (CTB) [1] | binding to nar-3 (nar-3, a rotavirus toxin) | further results
1 | GD1a | not capable of binding the toxin |  | 
2 | GD3 [GD3 isolated from the aqueous UP] |  | did not bind to this toxin | 
3 | GD3 [GD3 species isolated from the organic LP] |  | bound to nar-3 | 
4 | GM1 [GM1 isolated from buffalo milk serum] | binds to cholera toxin subunit B |  | 
5 | GM1 [bovine-brain GM1 species] | bind CTB |  | 
6 | GM3 [GM3 species] |  |  | binding of rotavirus particles (rotavirus particles): bind rotavirus particles

Reference: US20050107311A1, “Buffalo milk gangliosides” (priority 2001, published 2005)
